Calls of active or inactive are those of the source. The calls are words filed in the database; no cut-off is given here. Residues, ends and D or L forms follow the SMILES beside them.
Key:
[1] = target: T1, Tyrosine-protein phosphatase non-receptor type 1 (Homo sapiens) (UniProt P18031); assay: Binding affinity to recombinant human N-terminal poly histidine-tagged PTP1B (Glu2 to Asn321 residues) expressed in Escherichia coli assessed as association rate constant by surface plasmon resonance analysis
T1 sequence (whole entry): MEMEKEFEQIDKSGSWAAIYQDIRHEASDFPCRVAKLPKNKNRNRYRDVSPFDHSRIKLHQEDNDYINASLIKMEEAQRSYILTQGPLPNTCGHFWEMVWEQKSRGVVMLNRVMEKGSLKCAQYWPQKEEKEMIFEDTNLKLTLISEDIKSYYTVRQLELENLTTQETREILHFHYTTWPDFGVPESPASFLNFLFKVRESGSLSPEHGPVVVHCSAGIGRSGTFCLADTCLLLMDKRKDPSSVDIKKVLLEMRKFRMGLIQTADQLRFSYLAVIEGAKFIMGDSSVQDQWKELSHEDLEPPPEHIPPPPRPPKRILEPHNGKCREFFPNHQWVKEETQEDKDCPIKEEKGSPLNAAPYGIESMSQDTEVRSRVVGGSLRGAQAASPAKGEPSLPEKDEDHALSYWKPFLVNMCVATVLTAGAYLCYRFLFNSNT

[2] = target: Tyrosine-protein phosphatase non-receptor type 6 (Homo sapiens) (UniProt P29350); assay: Inhibition of SHP1 (unknown origin) at 5 umol/L using OMFP as substrate measured for 4 mins relative to control
Sequence of Tyrosine-protein phosphatase non-receptor type 6 (Homo sapiens) (P29350 whole entry, the tested form may be a part): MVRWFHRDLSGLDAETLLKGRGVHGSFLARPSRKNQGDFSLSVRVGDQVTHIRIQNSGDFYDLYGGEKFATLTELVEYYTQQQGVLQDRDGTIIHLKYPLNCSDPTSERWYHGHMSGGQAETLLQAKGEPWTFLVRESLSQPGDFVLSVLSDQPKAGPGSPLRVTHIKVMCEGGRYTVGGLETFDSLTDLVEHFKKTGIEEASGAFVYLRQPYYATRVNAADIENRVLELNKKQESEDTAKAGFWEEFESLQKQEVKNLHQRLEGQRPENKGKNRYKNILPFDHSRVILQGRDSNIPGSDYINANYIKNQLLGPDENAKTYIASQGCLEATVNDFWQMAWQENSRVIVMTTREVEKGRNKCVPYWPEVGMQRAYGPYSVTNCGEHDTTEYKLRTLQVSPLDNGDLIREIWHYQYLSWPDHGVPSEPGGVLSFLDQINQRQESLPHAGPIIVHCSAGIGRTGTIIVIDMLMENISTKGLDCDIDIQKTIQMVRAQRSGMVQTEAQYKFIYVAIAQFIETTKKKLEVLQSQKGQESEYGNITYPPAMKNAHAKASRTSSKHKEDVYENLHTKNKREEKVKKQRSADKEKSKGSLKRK

HepG2 [3] = assay: Cytotoxicity against human HepG2 cells assessed as effect on cell viability at 0.1 to 10 umol/L after 24 hrs by MTT assay; type: cell-based; conditions: hepg2, 24 h
[4] = target: T1, Tyrosine-protein phosphatase non-receptor type 1 (Homo sapiens); assay: Inhibition of recombinant human N-terminal poly histidine-tagged PTP1B (Glu2 to Asn321 residues) expressed in Escherichia coli at 0.5 umol/L using pNPP as substrate measured for 4 mins relative to control
[5] = target: Tyrosine-protein phosphatase non-receptor type 6 (Homo sapiens) (UniProt P29350); assay: Inhibition of SHP1 (unknown origin) at 10 umol/L using OMFP as substrate measured for 4 mins relative to control
[6] = target: T2, Tyrosine-protein phosphatase non-receptor type 2 (Homo sapiens) (UniProt P17706); assay: Inhibition of human GST-tagged TCPTP (41 to 1075 residues) expressed in Escherichia coli at 1 umol/L using pNPP as substrate measured for 4 mins relative to control
T2 sequence (whole entry): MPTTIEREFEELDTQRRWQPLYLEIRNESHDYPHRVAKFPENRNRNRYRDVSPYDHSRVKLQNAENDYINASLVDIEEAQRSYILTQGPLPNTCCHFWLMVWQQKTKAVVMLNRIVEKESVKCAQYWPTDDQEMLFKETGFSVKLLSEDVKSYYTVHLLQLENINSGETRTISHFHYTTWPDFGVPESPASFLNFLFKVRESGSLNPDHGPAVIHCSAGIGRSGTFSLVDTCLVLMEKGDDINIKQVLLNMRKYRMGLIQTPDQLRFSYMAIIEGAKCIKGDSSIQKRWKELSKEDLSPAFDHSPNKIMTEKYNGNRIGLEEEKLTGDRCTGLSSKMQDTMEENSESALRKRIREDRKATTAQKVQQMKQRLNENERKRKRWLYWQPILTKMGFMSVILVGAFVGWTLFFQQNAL

[7] = target: Tyrosine-protein phosphatase non-receptor type 6 (Homo sapiens) (UniProt P29350); assay: Inhibition of SHP1 (unknown origin) at 1 umol/L using OMFP as substrate measured for 4 mins relative to control
[8] = target: T1, Tyrosine-protein phosphatase non-receptor type 1 (Homo sapiens); assay: Binding affinity to recombinant human N-terminal poly histidine-tagged PTP1B (Glu2 to Asn321 residues) expressed in Escherichia coli assessed as dissociation rate constant by surface plasmon resonance analysis
[9] = target: Receptor-type tyrosine-protein phosphatase F (Homo sapiens) (UniProt P10586); assay: Inhibition of LAR (unknown origin) at 0.5 umol/L using OMFP as substrate measured for 4 mins relative to control
Sequence of Receptor-type tyrosine-protein phosphatase F (Homo sapiens) (P10586 whole entry, the tested form may be a part): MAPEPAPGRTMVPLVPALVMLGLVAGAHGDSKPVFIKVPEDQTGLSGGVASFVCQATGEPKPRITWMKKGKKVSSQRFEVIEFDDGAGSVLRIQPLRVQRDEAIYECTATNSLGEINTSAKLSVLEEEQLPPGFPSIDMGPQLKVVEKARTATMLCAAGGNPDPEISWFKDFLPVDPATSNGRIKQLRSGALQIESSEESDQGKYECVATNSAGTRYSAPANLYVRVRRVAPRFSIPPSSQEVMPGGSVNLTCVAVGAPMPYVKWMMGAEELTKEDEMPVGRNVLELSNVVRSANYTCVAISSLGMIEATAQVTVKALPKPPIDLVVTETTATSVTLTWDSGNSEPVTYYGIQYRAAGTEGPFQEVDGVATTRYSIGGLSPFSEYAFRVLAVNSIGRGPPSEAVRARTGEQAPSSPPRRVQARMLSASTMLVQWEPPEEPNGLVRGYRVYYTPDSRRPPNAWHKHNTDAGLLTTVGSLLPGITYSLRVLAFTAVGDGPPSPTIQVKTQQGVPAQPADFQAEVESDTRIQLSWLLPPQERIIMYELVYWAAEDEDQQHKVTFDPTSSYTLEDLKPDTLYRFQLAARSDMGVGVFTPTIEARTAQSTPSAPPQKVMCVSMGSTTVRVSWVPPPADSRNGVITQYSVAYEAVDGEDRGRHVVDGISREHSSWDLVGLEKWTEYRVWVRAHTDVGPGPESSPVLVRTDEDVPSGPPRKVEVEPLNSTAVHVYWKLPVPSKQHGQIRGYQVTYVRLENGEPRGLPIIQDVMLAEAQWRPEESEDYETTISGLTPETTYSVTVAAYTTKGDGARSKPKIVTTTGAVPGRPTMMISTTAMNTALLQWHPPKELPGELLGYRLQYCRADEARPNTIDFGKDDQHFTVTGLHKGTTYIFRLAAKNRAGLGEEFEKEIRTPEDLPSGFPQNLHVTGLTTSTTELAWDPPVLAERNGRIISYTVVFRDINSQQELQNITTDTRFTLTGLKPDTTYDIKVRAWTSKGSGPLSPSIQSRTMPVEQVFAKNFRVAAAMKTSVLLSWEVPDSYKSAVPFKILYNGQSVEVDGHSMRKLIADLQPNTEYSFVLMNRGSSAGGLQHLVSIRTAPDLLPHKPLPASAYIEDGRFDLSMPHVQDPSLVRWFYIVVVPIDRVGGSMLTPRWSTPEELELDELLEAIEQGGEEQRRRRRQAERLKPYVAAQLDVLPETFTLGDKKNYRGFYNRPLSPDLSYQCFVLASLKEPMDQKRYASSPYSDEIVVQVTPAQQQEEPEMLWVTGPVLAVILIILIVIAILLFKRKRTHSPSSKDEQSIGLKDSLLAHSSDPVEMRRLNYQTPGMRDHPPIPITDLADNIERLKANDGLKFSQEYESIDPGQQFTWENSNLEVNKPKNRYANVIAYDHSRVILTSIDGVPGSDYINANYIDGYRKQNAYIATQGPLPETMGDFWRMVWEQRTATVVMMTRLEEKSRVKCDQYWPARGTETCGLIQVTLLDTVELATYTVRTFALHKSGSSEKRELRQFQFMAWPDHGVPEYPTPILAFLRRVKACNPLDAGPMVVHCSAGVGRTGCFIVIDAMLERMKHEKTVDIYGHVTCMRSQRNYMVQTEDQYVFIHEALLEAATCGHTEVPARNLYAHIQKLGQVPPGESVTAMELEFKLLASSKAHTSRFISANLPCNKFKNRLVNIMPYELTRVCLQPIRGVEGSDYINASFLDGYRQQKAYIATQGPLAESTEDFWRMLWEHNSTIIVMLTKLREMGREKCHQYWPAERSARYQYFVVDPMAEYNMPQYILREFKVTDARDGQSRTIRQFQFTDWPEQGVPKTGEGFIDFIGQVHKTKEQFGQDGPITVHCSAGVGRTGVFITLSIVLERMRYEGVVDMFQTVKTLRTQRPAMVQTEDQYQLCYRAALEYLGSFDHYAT

[10] = target: T1, Tyrosine-protein phosphatase non-receptor type 1 (Homo sapiens); assay: Inhibition of recombinant human N-terminal poly histidine-tagged PTP1B (Glu2 to Asn321 residues) expressed in Escherichia coli at 5 umol/L using pNPP as substrate measured for 4 mins relative to control
[11] = target: T1, Tyrosine-protein phosphatase non-receptor type 1 (Homo sapiens); assay: Inhibition of recombinant human N-terminal poly histidine-tagged PTP1B (Glu2 to Asn321 residues) expressed in Escherichia coli at 40 umol/L using pNPP as substrate measured for 4 mins relative to control
[12] = target: T2, Tyrosine-protein phosphatase non-receptor type 2 (Homo sapiens); assay: Inhibition of human GST-tagged TCPTP (41 to 1075 residues) expressed in Escherichia coli at 5 umol/L using pNPP as substrate measured for 4 mins relative to control
[13] = target: Receptor-type tyrosine-protein phosphatase F (Homo sapiens) (UniProt P10586); assay: Inhibition of LAR (unknown origin) at 1 umol/L using OMFP as substrate measured for 4 mins relative to control
[14] = target: T2, Tyrosine-protein phosphatase non-receptor type 2 (Homo sapiens); assay: Inhibition of human GST-tagged TCPTP (41 to 1075 residues) expressed in Escherichia coli at 2.5 umol/L using pNPP as substrate measured for 4 mins relative to control
[15] = target: T3, Tyrosine-protein phosphatase non-receptor type 11 (Homo sapiens) (UniProt Q06124); assay: Inhibition of human GST-tagged SHP2 (1116 to 2162 residues) at 10 umol/L using OMFP as substrate measured for 4 mins relative to control
T3 sequence (whole entry): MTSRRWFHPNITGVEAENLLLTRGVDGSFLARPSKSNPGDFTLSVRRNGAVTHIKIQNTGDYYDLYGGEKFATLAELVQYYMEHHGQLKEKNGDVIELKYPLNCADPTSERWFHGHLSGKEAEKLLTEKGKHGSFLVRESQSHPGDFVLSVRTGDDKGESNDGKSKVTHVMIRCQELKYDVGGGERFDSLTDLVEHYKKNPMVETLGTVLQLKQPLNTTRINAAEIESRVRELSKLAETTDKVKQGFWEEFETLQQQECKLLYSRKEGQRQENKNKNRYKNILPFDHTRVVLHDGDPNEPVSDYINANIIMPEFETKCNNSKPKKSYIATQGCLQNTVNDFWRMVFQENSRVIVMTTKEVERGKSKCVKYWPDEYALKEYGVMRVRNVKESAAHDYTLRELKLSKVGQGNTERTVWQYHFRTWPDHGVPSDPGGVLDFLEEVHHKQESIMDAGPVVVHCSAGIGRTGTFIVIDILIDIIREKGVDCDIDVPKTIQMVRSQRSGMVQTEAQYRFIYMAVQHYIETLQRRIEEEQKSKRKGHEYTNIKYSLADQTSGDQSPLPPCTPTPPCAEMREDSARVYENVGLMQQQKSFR

[16] = target: T1, Tyrosine-protein phosphatase non-receptor type 1 (Homo sapiens); assay: Inhibition of recombinant human N-terminal poly histidine-tagged PTP1B (Glu2 to Asn321 residues) expressed in Escherichia coli at 10 umol/L using pNPP as substrate measured for 4 mins relative to control
[17] = target: Receptor-type tyrosine-protein phosphatase F (Homo sapiens) (UniProt P10586); assay: Inhibition of LAR (unknown origin) at 20 umol/L using OMFP as substrate measured for 4 mins relative to control
[18] = target: T2, Tyrosine-protein phosphatase non-receptor type 2 (Homo sapiens); assay: Inhibition of human GST-tagged TCPTP (41 to 1075 residues) expressed in Escherichia coli at 0.5 umol/L using pNPP as substrate measured for 4 mins relative to control
[19] = target: T4, Tyrosine-protein phosphatase non-receptor type 1 (Homo sapiens, UniProt P18031); assay: Inhibition of recombinant human N-terminal poly histidine-tagged PTP1B (Glu2 to Asn321 residues) expressed in Escherichia coli using pNPP as substrate measured for 4 mins
T4 sequence (P18031 whole entry): T1 sequence (whole entry)

[20] = target: T1, Tyrosine-protein phosphatase non-receptor type 1 (Homo sapiens); assay: Inhibition of recombinant human N-terminal poly histidine-tagged PTP1B (Glu2 to Asn321 residues) expressed in Escherichia coli at 2.5 umol/L using pNPP as substrate measured for 4 mins relative to control
[21] = target: T3, Tyrosine-protein phosphatase non-receptor type 11 (Homo sapiens); assay: Inhibition of human GST-tagged SHP2 (1116 to 2162 residues) at 0.5 umol/L using OMFP as substrate measured for 4 mins relative to control
[22] = target: Tyrosine-protein phosphatase non-receptor type 6 (Homo sapiens) (UniProt P29350); assay: Inhibition of SHP1 (unknown origin) at 20 umol/L using OMFP as substrate measured for 4 mins relative to control
HepG2 [23] = assay: Induction of insulin-stimulated 2-NBDG uptake in palmitic acid-induced insulin resistant human HepG2 cells at 1 to 10 umol/L preincubated for 24 hrs followed by insulin stimulation and measured after 30 mins by fluorescence assay; type: functional, cell-based
[24] = target: Tyrosine-protein phosphatase non-receptor type 6 (Homo sapiens) (UniProt P29350); assay: Inhibition of SHP1 (unknown origin) at 0.5 umol/L using OMFP as substrate measured for 4 mins relative to control
[25] = target: T1, Tyrosine-protein phosphatase non-receptor type 1 (Homo sapiens); assay: Inhibition of recombinant human N-terminal poly histidine-tagged PTP1B (Glu2 to Asn321 residues) expressed in Escherichia coli at 1 umol/L using pNPP as substrate measured for 4 mins relative to control
[26] = target: T2, Tyrosine-protein phosphatase non-receptor type 2 (Homo sapiens); assay: Inhibition of human GST-tagged TCPTP (41 to 1075 residues) expressed in Escherichia coli at 20 umol/L using pNPP as substrate measured for 4 mins relative to control
[27] = target: T3, Tyrosine-protein phosphatase non-receptor type 11 (Homo sapiens); assay: Inhibition of human GST-tagged SHP2 (1116 to 2162 residues) at 5 umol/L using OMFP as substrate measured for 4 mins relative to control
[28] = target: Receptor-type tyrosine-protein phosphatase F (Homo sapiens) (UniProt P10586); assay: Inhibition of LAR (unknown origin) at 5 umol/L using OMFP as substrate measured for 4 mins relative to control
[29] = target: T3, Tyrosine-protein phosphatase non-receptor type 11 (Homo sapiens); assay: Inhibition of human GST-tagged SHP2 (1116 to 2162 residues) at 2.5 umol/L using OMFP as substrate measured for 4 mins relative to control
[30] = target: Receptor-type tyrosine-protein phosphatase F (Homo sapiens) (UniProt P10586); assay: Inhibition of LAR (unknown origin) at 10 umol/L using OMFP as substrate measured for 4 mins relative to control
[31] = target: Receptor-type tyrosine-protein phosphatase F (Homo sapiens) (UniProt P10586); assay: Inhibition of LAR (unknown origin) at 2.5 umol/L using OMFP as substrate measured for 4 mins relative to control
[32] = target: T3, Tyrosine-protein phosphatase non-receptor type 11 (Homo sapiens); assay: Inhibition of human GST-tagged SHP2 (1116 to 2162 residues) at 1 umol/L using OMFP as substrate measured for 4 mins relative to control
[33] = target: T2, Tyrosine-protein phosphatase non-receptor type 2 (Homo sapiens); assay: Inhibition of human GST-tagged TCPTP (41 to 1075 residues) expressed in Escherichia coli at 10 umol/L using pNPP as substrate measured for 4 mins relative to control
[34] = target: T4, Tyrosine-protein phosphatase non-receptor type 1; assay: Binding affinity to recombinant human N-terminal poly histidine-tagged PTP1B (Glu2 to Asn321 residues) expressed in Escherichia coli by surface plasmon resonance analysis
HepG2 [35] = assay: Inhibition of PTP1B expression in palmitic acid-induced insulin resistant human HepG2 cells at 0.1 to 10 uM by western blot analysis; type: functional, cell-based
[36] = target: T1, Tyrosine-protein phosphatase non-receptor type 1 (Homo sapiens); assay: Inhibition of recombinant human N-terminal poly histidine-tagged PTP1B (Glu2 to Asn321 residues) expressed in Escherichia coli at 20 umol/L using pNPP as substrate measured for 4 mins relative to control
[37] = target: T3, Tyrosine-protein phosphatase non-receptor type 11 (Homo sapiens); assay: Inhibition of human GST-tagged SHP2 (1116 to 2162 residues) at 20 umol/L using OMFP as substrate measured for 4 mins relative to control
[38] = target: Tyrosine-protein phosphatase non-receptor type 6 (Homo sapiens) (UniProt P29350); assay: Inhibition of SHP1 (unknown origin) at 2.5 umol/L using OMFP as substrate measured for 4 mins relative to control

CCCCCCCCCCCCCCCC(=O)N[C@H](C(=O)N[C@@H](C)C(=O)N[C@@H](CCC(N)=O)C(=O)N[C@@H](CCC(=O)O)C(=O)N[C@@H](CC(C)C)C(=O)N[C@@H](CCCNC(=N)N)C(=O)N[C@@H](CCCNC(=N)N)C(=O)N[C@H](C(=O)NCC(=O)N[C@@H](CC(=O)O)C(=O)N[C@@H](CCC(=O)O)C(=O)N[C@@H](Cc1ccccc1)C(N)=O)[C@@H](C)CC)[C@@H](C)CC (HELM PEPTIDE1{[CCCCCCCCCCCCCCCC(=O)[*:2]].I.A.Q.E.L.R.R.I.G.D.E.F.[am]}$$$$V2.0)
Ka [1]: 2.17 ×10⁴ /Ms
inhibition [2]: 2.22%
Activity (HepG2 [3]): Non-Toxic
inhibition [4]: 8.68%
inhibition [5]: 3.89%
inhibition [6]: 6.22%
inhibition [7]: 1.36%
Kdiss [8]: 1.82 ×10⁻⁴ /s
inhibition [9]: 2.02%
inhibition [10]: 89.3%
inhibition [11]: 98%
inhibition [12]: 8.63%
inhibition [13]: 3.88%
inhibition [14]: 8.22%
inhibition [15]: 2.77%
inhibition [16]: 92%
inhibition [17]: 1.73%
inhibition [18]: 5.25%
IC50 [19]: 1200 nM
inhibition [20]: 80.6%
inhibition [21]: 0.96%
inhibition [22]: 9.22%
Activity (HepG2 [23]): Active
inhibition [24]: 2.03%
inhibition [25]: 47.2%
inhibition [26]: 35.2%
inhibition [27]: 2.83%
inhibition [28]: 1.52%
inhibition [29]: 3.52%
inhibition [30]: 3.36%
inhibition [31]: 2.33%
inhibition [32]: 2.02%
inhibition [33]: 12.2%
Kd [34]: 8.38 nM
inhibition (HepG2 [35]): Active
inhibition [36]: 93.7%
inhibition [37]: 10.6%
inhibition [38]: 2.88%

Ac-WIAQELRRIGDEFN-NH2
inhibition [11]: 9.43%

Source: ChEMBL document CHEMBL4371021, “BH3 mimetics derived from Bim-BH3 domain core region show PTP1B inhibitory activity” (Bioorg Med Chem Lett, 2019)
